Measurements as given in ChEMBL document CHEMBL3286346, “Ultrapure ajulemic acid has improved CB2 selectivity with reduced CB1 activity” (Bioorg Med Chem, 2014).
Active and inactive are the calls of the source. No cut-off for these calls is given here.

Columns and labels:
HL-60 [1] = test: Antiinflammatory activity in human HL60 cells assessed as stimulation of PGJ synthesis after 2 hrs by ELISA in presence of CB2 antagonist SR144528; assay type: functional, cell-based
HEK-293T = test: Selectivity ratio of Ki for human CB1 receptor expressed in HEK293T cell membranes to human CB2 receptor expressed in HEK293T cell membranes; assay type: cell-based
Mus musculus [2] = test: Toxicity in CD1 mouse assessed as time immobility on the ring for 5 mins at 30 mg/kg, po measured after 90 mins post dose by ring catalepsy test; assay type: organism-based; design: dose 30 mg/kg, route oral; settings: in vivo
HL-60 [3] = test: Antiinflammatory activity in human HL60 cells assessed as stimulation of PGJ synthesis after 2 hrs by ELISA; assay type: functional, cell-based
Cannabinoid receptor 1 = Cannabinoid receptor 1 (Homo sapiens, UniProt P21554); test: biochemical; assay type: cell-based, HEK-293T
Cannabinoid receptor 1, sequence (P21554 whole entry): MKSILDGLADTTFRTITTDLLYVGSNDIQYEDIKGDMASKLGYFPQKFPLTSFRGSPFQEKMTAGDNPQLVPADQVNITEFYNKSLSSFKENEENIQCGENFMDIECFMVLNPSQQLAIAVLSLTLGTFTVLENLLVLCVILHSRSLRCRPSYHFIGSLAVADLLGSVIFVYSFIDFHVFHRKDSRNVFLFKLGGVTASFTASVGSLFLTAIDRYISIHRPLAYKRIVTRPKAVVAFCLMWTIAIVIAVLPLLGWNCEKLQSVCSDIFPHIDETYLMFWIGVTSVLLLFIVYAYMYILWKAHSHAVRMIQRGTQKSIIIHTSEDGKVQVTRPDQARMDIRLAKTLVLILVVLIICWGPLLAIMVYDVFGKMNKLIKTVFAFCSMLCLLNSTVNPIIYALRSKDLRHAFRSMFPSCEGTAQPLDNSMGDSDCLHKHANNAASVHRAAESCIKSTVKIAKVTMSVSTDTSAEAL
Description: Displacement of [3H]-CP-55940 from human CB1 receptor expressed in HEK293T cell membranes by scintillation counting

HL-60 [4] = test: Antiinflammatory activity in human HL60 cells assessed as stimulation of PGJ synthesis after 2 hrs by ELISA in presence of CB1 antagonist SR141716; assay type: functional, cell-based
Mus musculus [5] = test: Toxicity in CD1 mouse assessed as hypothermia measured as lowering of core body temperature at 3 to 56 mg/kg, po measured after 90 mins post dose; assay type: organism-based; design: dose 3-56 mg/kg, route oral; settings: in vivo, 1.5 h
Mus musculus [6] = test: Antinociceptive activity in CD1 mouse assessed as increase in paw withdrawal latency at 56 mg/kg, po measured after 90 mins post dose by hot plate test relative to vehicle-treated control; assay type: functional, organism-based; design: dose 56 mg/kg
Cannabinoid receptor 2 = Cannabinoid receptor 2 (Homo sapiens, UniProt P34972); test: Displacement of [3H]-CP-55940 from human CB2 receptor expressed in HEK293T cell membranes by scintillation counting; design: species or system HEK-293T
Cannabinoid receptor 2, sequence (P34972 whole entry): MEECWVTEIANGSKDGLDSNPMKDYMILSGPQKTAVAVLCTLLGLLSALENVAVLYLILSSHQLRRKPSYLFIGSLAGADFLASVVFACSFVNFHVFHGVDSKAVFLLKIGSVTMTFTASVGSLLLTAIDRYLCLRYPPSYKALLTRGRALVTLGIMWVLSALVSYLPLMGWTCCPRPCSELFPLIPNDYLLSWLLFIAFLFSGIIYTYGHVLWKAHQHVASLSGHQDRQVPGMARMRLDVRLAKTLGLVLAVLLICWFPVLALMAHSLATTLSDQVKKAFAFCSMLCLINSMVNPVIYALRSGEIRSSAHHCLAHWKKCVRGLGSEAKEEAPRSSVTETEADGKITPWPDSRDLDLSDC

Mus musculus [7] = test: Antinociceptive activity in CD1 mouse assessed as increase in paw withdrawal latency at 0.05 to 5 mg/kg, po measured after 90 mins post dose by hot plate test relative to vehicle-treated control; assay type: functional, organism-based

Question: `CCCCCCC(C)(C)c1cc(OC(C)=O)c2c(c1)OC(C)(C)[C@@H]1CC=C(C(=O)O)C[C@@H]21` was tested. Which Activity (HL-60 [1]) did it give?
Answer: The Activity was “inactive”.

Question: What about the Ratio Ki (HEK-293T) of the same compound?
Answer: The Ratio Ki was 12.3.

Question: What about the Activity (Mus musculus [2]) of the same compound?
Answer: Its Activity is “Toxic”.

Question: What about the Activity (HL-60 [3]) of the same compound?
Answer: The Activity was “Active”.

Question: And the Ki (Cannabinoid receptor 1)?
Answer: Its Ki is 0.628 µM.

Question: And the Activity (HL-60 [4])?
Answer: The Activity was “inactive”.

Question: What about the Activity (Mus musculus [5]) of the same compound?
Answer: The Activity was “Non-toxic”.

Question: What about the Activity (Mus musculus [6]) of the same compound?
Answer: Its Activity is “inactive”.

Question: What about the Ki (Cannabinoid receptor 2) of the same compound?
Answer: Its Ki is 0.051 µM.

Question: `CCCCCCC(C)(C)c1cc(O)c2c(c1)OC(C)(C)[C@@H]1CC=C(C(=O)O)C[C@@H]21` was tested. Which Activity (Mus musculus [7]) did it give?
Answer: Its Activity is “Active”.
